Results from PubChem BioAssay (NCI).
“And” between values parts separate entries of the source, which are not always exact repeats. Equal entries are not always repeated.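 Cultured in 96-well plates, cells were exposed to test compound for 48 hours across five concentrations. The concentration for 50% growth inhibition is given as GI50. At the TGI there is no net growth.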

Test system: MDA-MB-468 breast
Experiment: DTP human tumour cell line panel, 48 h

Compound | GI50 | TGI
Cc1ccc(Sc2oc(-c3ccc(C)cc3)nc2[P+](c2ccccc2)(c2ccccc2)c2ccccc2)cc1 | 0.227 µM | 0.705 µM
COc1cccc(CC(C)=C(c2ccc(OCCCN(C)C)cc2)c2ccc(OCCCN(C)C)cc2)c1 | 0.518 µM | 1.18 µM
O=c1c(O)cccn1CCCN(CCCn1cccc(O)c1=O)CCn1cccc(O)c1=O | 8.33 µM | 45.6 µM
O=C1CSC(c2ccccc2O)N1c1nnc(Cn2ccnc2)o1 (stereo unspecified) | 3.11 µM | 13.2 µM
Cc1ccc(NC(=O)Nc2nc3ccc([N+](=O)[O-])cc3s2)cc1 | 1.71 µM | 5.8 µM
O=[N+]([O-])c1ccc2c(Nc3ccccc3-c3ccccc3Nc3c4ccccc4nc4cc([N+](=O)[O-])ccc34)c3ccccc3nc2c1 | 2.25 µM | 8.6 µM
CN(c1ccc(C#N)c(Cl)c1)C1CCC(NC(=O)c2ccc(N3CCN(C4CN(c5ccc6c(c5)C(=O)N(C5CCC(=O)NC5=O)C6=O)C4)CC3)cc2)CC1 (stereo unspecified) | 13.7 µM | 60 µM
Nc1n[nH]c2ccc([C@@H]3Nc4cc5[nH]ncc5cc4[C@H]4C5CCC(C5)[C@@H]34)cc12 (stereo partly specified) | 0.211 µM | 0.873 µM
C[C@@H]1COCCN1c1cc(-c2ccnn2C)c2ccnc(-c3ccn[nH]3)c2n1 | 0.164 µM and 0.324 µM | 0.854 µM and 3.08 µM
CC(=O)O.CC(=O)O.CC(=O)O.CC(=O)O.[Rh].[Rh] | 15 µM | 58.1 µM
COc1ccc(C2C(C#N)=C(/N=C/c3ccc(Cl)cc3)Oc3c2sc2c(C)cccc32)cc1 (stereo unspecified) | 1.09 µM | 9.34 µM
Cn1nnc2c(C(N)=O)ncn2c1=O | > 100 µM | > 100 µM
Cc1cc(NC(=O)c2cnc(N3CCN(CCOCCOCCOCCOCCC(=O)N[C@H](C(=O)N4C[C@H](O)C[C@H]4C(=O)N[C@@H](C)c4ccc(-c5scnc5C)cc4)C(C)(C)C)CC3)cn2)c2ncccc2c1 | 1.67 µM | 3.39 µM
Nc1ncccc1-c1nc2ccc(-c3ccccc3)nc2n1-c1ccc(C2(N)CCC2)cc1 | 0.117 µM | 1.99 µM
O=C1/C(=C/c2cccc(Br)c2)COc2ccc(O)c(O)c21 | 1.6 µM | 3.8 µM
COc1cc(/C=C/[N+](=O)[O-])cc(OC)c1OC | 1.32 µM | 2.87 µM
C=C1C(=O)O[C@H]2[C@H]1CC/C(CNC(=O)/C=C/c1ccccc1)=C\CC[C@@]1(C)O[C@@H]21 | 0.48 µM | 1.69 µM
COc1ccc2c(c1)/C(=C\c1c[nH]c3ccc(OC)cc13)C(=O)N2 | 1.78 µM | 5.66 µM
O=C(Nc1cnc(C(F)(F)F)cn1)c1cc(Cl)ccc1O | 0.282 µM | 0.819 µM
O=C1CCC(N2C(=O)c3cccc(NCCCC4CCN(CCNC(=O)c5cc6c(o5)C(=O)c5ccccc5C6=O)CC4)c3C2=O)C(=O)N1 (stereo unspecified) | 0.265 µM | 1.94 µM
CCN(CC)CCCC(C)Nc1c(-c2ccccc2)cnc2cc(Cl)ccc12 (stereo unspecified) | 2.63 µM | 7.95 µM
Cn1c2c(c3ccccc31)CCN1C(=O)C3SC21C1C(=O)N(c2ccccc2)C(=O)C31 (stereo unspecified) | 51.6 µM | > 100 µM
CCN(CC)CCC(CNc1c(C)cnc2cc(Cl)ccc12)c1ccc(Cl)cc1 (stereo unspecified) | 2.05 µM | 5.45 µM

Compound | GI50 | TGI
Brc1cccc(-c2cc(-c3ccc4nccnc4c3)[nH]n2)c1 | 0.9 µM | –
Cc1oc2c(c1C(=O)N1CC[C@@H](N)C1)C(=O)c1c(c(O)c3ccccc3c1O)C2=O | 2.52 µM | 11.9 µM
COc1cccc(C2C(C#N)=C(N)Oc3c2ccc2ccccc32)c1 (stereo unspecified) | 0.0194 µM | 7.04 µM
NNc1c2ccccc2nc2ccccc12 | 0.47 µM | 13 µM
NC(=O)c1cccc(-c2cc(C(N)=O)ccc2Cl)c1 | 4.61 µM | > 100 µM
CCN(CC)C(=S)SSC(=S)N(CC)CC | 15.8 µM and 16.8 µM | 43.7 µM and 44.8 µM
COc1ccc(Oc2ccccc2NC(=O)CNC(=O)c2cccc3ccccc23)cc1 | 0.454 µM | > 25 µM
COc1cc(C2CC(=O)Nc3c2cc(Br)c2ccccc32)cc(Br)c1OC (stereo unspecified) | 0.529 µM | 2.54 µM
CCN1C(=O)N(CC)C2C1NN=c1s/c(=C\c3ccc[nH]3)c(=O)n12 (stereo unspecified) | 0.265 µM | > 100 µM
N/C(=N\c1nc2ccccc2s1)NC(=NC1CCCCC1)NC1CCCCC1 | 1.7 µM | 3.41 µM
CC/C=C\C/C=C/C=C1/C(=O)C=C[C@@H]1C/C=C\CCCC(=O)OC | 1.79 µM | 3.83 µM
CCOC(=O)C1=C(C)N2C(=NC3=C(CCC/C3=C\c3ccc(Cl)cc3)C2c2ccc(Cl)cc2)S1 (stereo unspecified) | 2.36 µM | 6.19 µM
Cc1c2ccncc2c(C)c2c1c1cc(CO)ccc1n2C | 0.105 µM | 0.327 µM
C=C1CC[C@@H]2[C@](C)(COC(C)=O)[C@H](OC(C)=O)CC[C@@]2(C)[C@@H]1CC(Nc1ccc(S(=O)(=O)Nc2nccs2)cc1)C1=CCOC1=O (stereo partly specified) | 1.83 µM | 4.43 µM
C[C@H]1c2ccccc2CN1CCCOc1cc2c(cc1OCC1CC1)C1(CCCC1)C(N)=N2 | 0.813 µM | 1.83 µM
C=CCn1c(=O)c2cnc(Nc3ccc(N4CCN(C)CC4)cc3)nc2n1-c1cccc(C(C)(C)O)n1 | 0.144 µM and 0.317 µM | 0.801 µM and 2.08 µM
COC1=CC(=O)c2c(O)c3c(c(O)c2C1=O)C[C@](C)(O)C[C@@H]3O | 2.16 µM | 7.13 µM
NS(=O)(=O)c1cccc(-c2ccc3c(NC(=O)C4CC4)n[nH]c3c2)c1 | 5.25 µM | > 25 µM
OCc1ccc(N2CCCC2)cc1Cl | 0.0757 µM | 0.324 µM
Oc1c(Cl)cc(Cl)c2cccnc12 | 2.1 µM | 5.53 µM
COc1cc(OC)cc(-c2n/c(=C\c3c(O)[nH]c4ccc(Cl)cc34)cc3c2=Nc2ccccc2-3)c1 | 17.9 µM | 45.6 µM
CCN(C(=O)CN1CCN(c2cc3c(cc2F)c(=O)c(C(=O)O)cn3CC)CC1)c1nc(-c2ccccc2)cs1 | 0.307 µM | 0.896 µM
Cc1cccc2c(Nc3ccc(NS(C)(=O)=O)cc3)c3ccc([N+](=O)[O-])cc3nc12 | 0.202 µM | 0.882 µM
